We go through 1 molecule from patent US10052321B2, “Nanoparticulate compositions and formulations of piperazine compounds” (Rexahn Pharmaceuticals, Inc., priority 2013, dated 2018).

Some results are limits rather than exact numbers.

For orientation: solubility means the concentration that dissolves in the medium under given conditions. A high value points to much dissolved substance.

Data set [1] is described as follows: Solubility in water. The class given is physicochemical. How it is done: This poor solubility in water makes it difficult to deliver the compound and related compounds of formula (1) and has limited clinical development, thus creating a need for the development of a formulation suitable for clinical use. The present invention was developed with a goal of obtaining a suitable formulation that can provide a stable suspension of the compound at a concentration of about 100 mg/mL or a dried formulation that could be either delivered orally or used to prepare a stable suspension. While the invention is described and exemplified primarily with respect to 1-(3,5-dimethoxyphenyl)-4-[(6-fluoro-2-methoxyquinoxalin-3-yl)aminocarbonyl]piperazine, it is to be understood that the invention is applicable to other compounds of formula (1).
1-(3,5-Dimethoxyphenyl)-4-[(6-fluoro-2-methoxyquinoxalin-3-yl)aminocarbonyl]piperazine has a very poor solubility in water, less than 0.1 μg/ml, and its solubility was tested in several co-solvents. […] Thus, these classical formulations are not useful in clinical use, although they could be used in some limited purpose in pre-clinical studies.
Particles were crystalline and irregularly shaped. FIG. 1 illustrates particles of 1-(3,5-Dimethoxyphenyl)-4-[(6-fluoro-2-methoxyquinoxalin-3-yl)aminocarbonyl]piperazine at 400× Magnification. […]

Data set [2] is described as follows: Particle size of unmilled API by laser diffraction. The class given is physicochemical. The following applies: dispersed in aqueous solution of Aerosol OT. An excerpt:
(§1) API morphology can be characterized by optical microscopy (e.g., Olympus BX51 microscope with Clemex JS-2000 controller). Differential scanning calorimetry (e.g., Mettler-Toledo DSC 1) and thermogravimetric analysis (e.g., Mettler-Toledo TGA/DSC 1) can be used to measure the thermal characteristics of the material. Particle size measurements can be made throughout by, for example, laser diffraction (e.g. Horiba LA-950V2), by dispersing the material, either in water, when surfactant is present in the test sample or in a dilute solution of poloxamer when no other dispersant was present.
Based on chemical structure, the refractive index of 1-(3,5-dimethoxyphenyl)-4-[(6-fluoro-2-methoxyquinoxalin-3-yl)aminocarbonyl]piperazine was predicted to be 1.637. For particle size measurements, the imaginary component of the refractive index, or the i-value (a unitless factor used by the laser diffraction algorithm to account for the absorption of light by the particles) was determined to be 0.1. Unmilled 1-(3,5-Dimethoxyphenyl)-4-[(6-fluoro-2-methoxyquinoxalin-3-yl)aminocarbonyl]piperazine dispersed readily in an aqueous solution of (Aerosol OT). The median particle size (D50) measured at 13 μm.

The nature of data set [3]: Thermal analysis (TGA / DSC). The class given is physicochemical.
Source text: as §1
Mass loss after 220° C. may be attributable to thermal degradation.
Differential scanning calorimetry (see FIG. 4) confirmed the endotherm related to the initial mass loss at 108° C.

The nature of data set [4]: Oral bioavailability in animal model studies. The class given is in vivo. An excerpt: Because of the poor aqueous solubility of 1-(3,5-dimethoxyphenyl)-4-[(6-fluoro-2-methoxyquinoxalin-3-yl)aminocarbonyl]piperazine, production of a submicron suspension needed to be developed as a viable oral delivery option to avoid the need to administer large volumes of a 1-(3,5-dimethoxyphenyl)-4-[(6-fluoro-2-methoxyquinoxalin-3-yl)aminocarbonyl]piperazine solution to achieve the intended dosage levels.

For the molecule `COc1cc(OC)cc(N2CCN(C(=O)Nc3nc4cc(F)ccc4nc3OC)CC2)c1` [Compound A, 1-(3,5-Dimethoxyphenyl)-4-[(6-fluoro-2-methoxyquinoxalin-3-yl)aminocarbonyl]piperazine], in data set [1], the solubility was less than 0.1 µg/mL and the “solubility in water” value is given as “practically insoluble”. Also, the “median particle size (D50)” value in data set [2] is 13 μm. Moreover, in data set [3] (TGA and DSC data), the “thermal stability” value was “thermally stable”. The “no indication of decomposition until” value in data set [3] (differential scanning calorimetry) turned out to be 223 °C. Moreover, the “oral bioavailability” value in data set [4] is recorded as “good oral bioavailability”.
